Common to all, as to test: Kinase inhibitor profiling, autophosphorylation
Format in all cases: biochemical

The target in experiment [1] is T1, EphB4 (Mus musculus, UniProt P54761).
T1 construct: specificity data for proteins generated from a library of eighteen full-length clones; host or cells: rabbit reticulocyte lysate, TnT coupled in vitro transcription/translation (cell-free)
T1 sequence (P54761 16-987): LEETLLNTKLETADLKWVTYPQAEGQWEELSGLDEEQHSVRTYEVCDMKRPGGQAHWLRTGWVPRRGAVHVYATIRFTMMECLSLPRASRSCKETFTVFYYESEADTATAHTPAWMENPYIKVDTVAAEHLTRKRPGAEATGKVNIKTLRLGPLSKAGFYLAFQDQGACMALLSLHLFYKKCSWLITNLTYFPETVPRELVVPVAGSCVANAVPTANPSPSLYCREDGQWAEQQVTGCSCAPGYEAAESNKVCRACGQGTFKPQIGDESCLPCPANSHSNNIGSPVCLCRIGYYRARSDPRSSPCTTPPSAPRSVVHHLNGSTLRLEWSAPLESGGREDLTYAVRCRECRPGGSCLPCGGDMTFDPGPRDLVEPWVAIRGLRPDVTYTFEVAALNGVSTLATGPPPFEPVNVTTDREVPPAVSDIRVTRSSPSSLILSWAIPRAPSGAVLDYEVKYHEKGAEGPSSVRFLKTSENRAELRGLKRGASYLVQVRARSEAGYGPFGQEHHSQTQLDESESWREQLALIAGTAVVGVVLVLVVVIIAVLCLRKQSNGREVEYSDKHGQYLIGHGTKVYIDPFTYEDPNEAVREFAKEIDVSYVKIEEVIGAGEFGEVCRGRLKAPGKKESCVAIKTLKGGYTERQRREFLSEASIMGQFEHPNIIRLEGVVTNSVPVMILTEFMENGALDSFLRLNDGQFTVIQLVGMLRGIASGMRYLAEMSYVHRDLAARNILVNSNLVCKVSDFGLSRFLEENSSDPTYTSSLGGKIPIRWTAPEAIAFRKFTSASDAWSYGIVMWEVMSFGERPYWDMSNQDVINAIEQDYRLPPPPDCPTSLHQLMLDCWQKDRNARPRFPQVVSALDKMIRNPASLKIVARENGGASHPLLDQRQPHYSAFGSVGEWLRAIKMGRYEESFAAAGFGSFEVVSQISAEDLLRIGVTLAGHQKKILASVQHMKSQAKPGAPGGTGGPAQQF
On the procedure:
(§1) Proteins were produced from DNA plasmids of Mock Luciferase, Promega, tyrosine kinase clone Spleen Tyrosine kinase (SYK, IMAGE ID# 3870426) and Eph receptor-A7 (EphA7, IMAGE ID# 3991628) (Incyte Genomics, CA) and immobilized on streptavidin or avidin coated NPT-IPR plates as described in the Example 7. To promote autophosphorylation in these immobilized and purified proteins, Mn++ ions were added in a 50 μl reaction containing 5 mM MgCl2, 5 mM MnCl2, 100 μM ATP, 25 mM Tris-HCl buffer pH 7.4, 0.05 mM Na3VO4, 0.004% TritonX-100, 2 mM DTT and EDTA-free protease inhibitor (Roche Molecular Biochemicals). This mixture was incubated with shaking at room temperature overnight to allow autophosphorylation. Following this incubation, wells were washed 2 times with TT-buffer and 2 times with water. Following this step, 50 ng Sulfo-TAG labeled anti-phosphotyrosine in buffer containing 25 mM Tris-HCl buffer pH 7.4, 5 mM MgCl2, 0.05 mM Na3VO4, 0.004% TritonX-100, 2 mM DTT and 0.05% IgG in a final volume of 50 μl was added followed by incubation at room temperature for 45 min. The unbound reagents were removed by one time washing with water, and the TAG label was detected in presence of 150 μl IPR assay buffer (0.4 mM Gly—Gly buffer, pH 7.8, 1 mM EDTA, 0.1 M TPA). The ECL signals were measured using an imaging plate reader.
(§2) Proteins were produced using 100 ng of plasmid DNA Mock (Luciferase, Promega) or tyrosine kinases (Fert2 IMAGE ID # 4485050, FGFR1 IMAGE ID # 4037899, Fgfr2 IMAGE ID # 2654352, Src IMAGE ID # 3156400, BMX IMAGE ID # 3919253, LCK IMAGE ID # 4191610, Epha7 IMAGE ID # 3991628, Ephb4 IMAGE ID # 4013934, Tek IMAGE ID # 3482498, HCK IMAGE ID # 4778819, BTK IMAGE ID # 4478463, CSK IMAGE ID # 4398416, SYK IMAGE ID # 3870426, FGR IMAGE ID # 4419973, PTK2B IMAGE ID # 4339456, FRK(IMAGE ID # 4515877, Kit IMAGE ID # 2644960, Fgfr-4 IMAGE ID # 4239139, NTRK3 IMAGE ID # 4181574, Kdr IMAGE ID # 4238984, Incyte Genomics, CA) and immobilized on SA or avidin coated NPT-IPR plates as described in previous examples. The unbound components of the translation reaction (including any endogenous kinases) were removed by 3 washes with TT-buffer (25 mM Tris-HCl buffer pH 7.4 and 0.004% Triton), two five minutes washes with high-salt wash buffer (25 mM Tris-HCl buffer pH 7.4, 0.004% Triton, 1M NaCl and 5 mM DTT) and 3 washes with TT-buffer. […] The mixture was incubated at room temperature for 10 mm before starting the kinase reaction by adding 25 μl of 200 μM ATP in buffer A. This mixture was incubated with intermittent shaking at room temperature for 2 hours to overnight to allow (a) phosphorylation of the pEY substrate and (b) autophosphorylation of the immobilized kinases. Autophosphorylation and phosphorylation of the pEY was measured as described in Examples 7 and 8.
(§3) The ECL signal in control wells produced by tyrosine kinases was compared to the wells containing inhibitor compounds. The signal produced from Mock was negligible.

Experiment [2] concerns the target T2, FGFR2 (Mus musculus, UniProt P21803).
T2 construct: specificity data for proteins generated from a library of eighteen full-length clones; host or cells: rabbit reticulocyte lysate, TnT coupled in vitro transcription/translation (cell-free)
Here is the method:
as §1, §2, §3

Experiment [3] addresses T3, Fgfr4 (Mus musculus, UniProt Q03142).
T3 construct: specificity data for proteins generated from a library of eighteen full-length clones; biotin on random lysines (biotin-Lys-tRNA); host or cells: rabbit reticulocyte lysate, coupled transcription/translation (TnT, Promega)
On the procedure: as §1, §2, §3

Experiment [4] deals with T4, SRC (Mus musculus, UniProt P05480).
T4 construct: specificity data for proteins generated from a library of eighteen full-length clones; host or cells: rabbit reticulocyte lysate, TnT coupled transcription/translation
On the procedure:
as §1, §2, §3

Experiment [5] concerns the target T5, SYK (Homo sapiens, UniProt P43405).
T5 construct: autophosphorylation activity from full-length clones Spleen Tyrosine Kinase (SYK) and Eph receptor-A7 (EphA7); host or cells: rabbit reticulocyte lysate, TnT coupled in vitro transcription/translation (cell-free)
On the procedure: as §1, §2, §3

T2 sequence (P21803 22-821): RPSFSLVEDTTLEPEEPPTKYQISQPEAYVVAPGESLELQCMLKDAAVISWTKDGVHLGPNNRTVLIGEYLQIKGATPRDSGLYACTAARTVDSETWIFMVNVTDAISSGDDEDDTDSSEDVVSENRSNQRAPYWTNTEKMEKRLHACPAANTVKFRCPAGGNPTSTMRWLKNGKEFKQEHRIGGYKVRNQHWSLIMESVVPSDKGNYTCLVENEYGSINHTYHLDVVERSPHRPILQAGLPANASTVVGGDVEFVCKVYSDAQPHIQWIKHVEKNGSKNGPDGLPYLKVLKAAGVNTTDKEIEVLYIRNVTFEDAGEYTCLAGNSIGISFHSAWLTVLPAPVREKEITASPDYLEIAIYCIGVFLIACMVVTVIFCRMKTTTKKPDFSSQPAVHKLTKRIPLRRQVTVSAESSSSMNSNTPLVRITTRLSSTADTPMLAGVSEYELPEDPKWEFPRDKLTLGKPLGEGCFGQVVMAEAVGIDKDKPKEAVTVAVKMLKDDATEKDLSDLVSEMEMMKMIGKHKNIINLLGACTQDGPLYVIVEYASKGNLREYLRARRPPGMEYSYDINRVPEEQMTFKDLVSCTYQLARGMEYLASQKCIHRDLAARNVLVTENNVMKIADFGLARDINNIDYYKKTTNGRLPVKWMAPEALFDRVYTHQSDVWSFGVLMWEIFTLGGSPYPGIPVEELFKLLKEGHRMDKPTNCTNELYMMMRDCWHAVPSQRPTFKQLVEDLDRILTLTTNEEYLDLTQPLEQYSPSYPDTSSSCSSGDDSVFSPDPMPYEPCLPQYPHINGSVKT
T3 sequence (Q03142 17-799): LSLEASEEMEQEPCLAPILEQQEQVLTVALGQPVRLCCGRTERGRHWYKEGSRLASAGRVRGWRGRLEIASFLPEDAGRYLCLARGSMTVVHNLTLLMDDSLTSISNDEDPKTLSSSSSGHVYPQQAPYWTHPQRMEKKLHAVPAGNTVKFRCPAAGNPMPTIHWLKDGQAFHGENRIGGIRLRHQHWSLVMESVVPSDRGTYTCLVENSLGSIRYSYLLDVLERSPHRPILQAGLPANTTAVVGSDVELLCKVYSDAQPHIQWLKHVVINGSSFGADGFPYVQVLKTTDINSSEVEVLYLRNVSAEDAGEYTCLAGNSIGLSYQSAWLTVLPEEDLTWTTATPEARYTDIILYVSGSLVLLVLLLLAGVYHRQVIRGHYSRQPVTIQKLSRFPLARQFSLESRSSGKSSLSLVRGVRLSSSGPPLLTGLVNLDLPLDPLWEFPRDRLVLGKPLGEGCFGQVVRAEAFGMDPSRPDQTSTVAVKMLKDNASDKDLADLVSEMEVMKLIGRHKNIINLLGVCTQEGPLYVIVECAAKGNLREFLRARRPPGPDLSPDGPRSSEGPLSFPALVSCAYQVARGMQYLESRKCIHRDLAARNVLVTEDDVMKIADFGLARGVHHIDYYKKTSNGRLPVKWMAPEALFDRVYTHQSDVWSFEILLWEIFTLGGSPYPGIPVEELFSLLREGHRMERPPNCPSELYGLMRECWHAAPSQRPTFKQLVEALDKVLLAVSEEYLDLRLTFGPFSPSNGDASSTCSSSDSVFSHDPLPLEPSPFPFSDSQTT

As for `COC(=O)c1ccc(NCc2cc(O)ccc2O)cc1` [AG-957], in experiment [1], the “Inhibition specificity towards Autophosphorylation at 10X IC50, Ephb4” value is given as “L (low inhibition (“L”=between 50–75% of the activity remaining))”. In experiment [2], the “Inhibition specificity towards Autophosphorylation at 10X IC50, FGFR2” value is “L (low inhibition (“L”=between 50–75% of the activity remaining))”. Besides, in experiment [3], the “Inhibition specificity towards Autophosphorylation at 10X IC50, Fgfr4” value is on record as “L (low inhibition (“L”=between 50–75% of the activity remaining))”. Further, the “Inhibition specificity towards Autophosphorylation at 10X IC50, Src” value in experiment [4] is “L (low inhibition (“L”=between 50–75% of the activity remaining))”. Further, the “Inhibition specificity towards Autophosphorylation at 10X IC50, SYK” value in experiment [5] is listed as “L (low inhibition (“L”=between 50–75% of the activity remaining))”.

As for `CC(C)(C)c1cc(C=C(C#N)C#N)cc(Br)c1O` [AG-1024], the “Inhibition specificity towards Autophosphorylation at 10X IC50, FGFR2” value in experiment [2] was “L (low inhibition (“L”=between 50–75% of the activity remaining))”. In addition, the “Inhibition specificity towards Autophosphorylation at 10X IC50, Fgfr4” value in experiment [3] is listed as “L (low inhibition (“L”=between 50–75% of the activity remaining))”.

For `Cc1cc2ncc(-c3ccc(O)c(O)c3)nc2cc1C` [AG-1433], the “Inhibition specificity towards Autophosphorylation at 10X IC50, Ephb4” value in experiment [1] is on record as “H (high inhibition (“H”=less than 25% of the activity remaining))”. In experiment [2], the “Inhibition specificity towards Autophosphorylation at 10X IC50, FGFR2” value is reported as “H (high inhibition (“H”=less than 25% of the activity remaining))”. Also, the “Inhibition specificity towards Autophosphorylation at 10X IC50, Fgfr4” value in experiment [3] is recorded as “H (high inhibition (“H”=less than 25% of the activity remaining))”. In experiment [4], the “Inhibition specificity towards Autophosphorylation at 10X IC50, Src” value was “H (high inhibition (“H”=less than 25% of the activity remaining))”. Moreover, the “Inhibition specificity towards Autophosphorylation at 10X IC50, SYK” value in experiment [5] is recorded as “H (high inhibition (“H”=less than 25% of the activity remaining))”.

As to `COc1c(C=O)c(O)cc2c1C(=O)c1ccccc1C2=O` [Damnacanthal], in experiment [1], the “Inhibition specificity towards Autophosphorylation at 10X IC50, Ephb4” value is “H (high inhibition (“H”=less than 25% of the activity remaining))”. Further, in experiment [2], the “Inhibition specificity towards Autophosphorylation at 10X IC50, FGFR2” value is “M (medium inhibition (“M”=between 25 to 50% of the activity remaining))”. In experiment [3], the “Inhibition specificity towards Autophosphorylation at 10X IC50, Fgfr4” value is reported as “H (high inhibition (“H”=less than 25% of the activity remaining))”. Besides, the “Inhibition specificity towards Autophosphorylation at 10X IC50, Src” value in experiment [4] was “H (high inhibition (“H”=less than 25% of the activity remaining))”. For the same compound, the “Inhibition specificity towards Autophosphorylation at 10X IC50, SYK” value in experiment [5] is listed as “M (medium inhibition (“M”=between 25 to 50% of the activity remaining))”.

As for `Cc1ccc(-c2nn(C(C)(C)C)c3ncnc(N)c23)cc1` [PP1], in experiment [4], the “Inhibition specificity towards Autophosphorylation at 10X IC50, Src” value is given as “L (low inhibition (“L”=between 50–75% of the activity remaining))”.

As to `COc1cc2ncnc(Nc3ccc(Cl)cc3F)c2cc1OC` [VEGFR inhibitor], the “Inhibition specificity towards Autophosphorylation at 10X IC50, Ephb4” value in experiment [1] is listed as “L (low inhibition (“L”=between 50–75% of the activity remaining))”.

For the compound Erbstatin analog, the “Inhibition specificity towards Autophosphorylation at 10X IC50, Ephb4” value in experiment [1] is listed as “L (low inhibition (“L”=between 50–75% of the activity remaining))”. The “Inhibition specificity towards Autophosphorylation at 10X IC50, FGFR2” value in experiment [2] is listed as “L (low inhibition (“L”=between 50–75% of the activity remaining))”. Further, the “Inhibition specificity towards Autophosphorylation at 10X IC50, Src” value in experiment [4] is “L (low inhibition (“L”=between 50–75% of the activity remaining))”. The “Inhibition specificity towards Autophosphorylation at 10X IC50, SYK” value in experiment [5] is “L (low inhibition (“L”=between 50–75% of the activity remaining))”.

The values above are taken from patent publication US7063946B2, “Methods, reagents, kits and apparatus for protein function analysis” (Meso Scale Technologies, LLC., priority 2001, dated 2006).
